Assay results as given in patent US6737383B1, “Herbicidal oxadiazolidines” (priority 1999, dated 2004).

Experiments:
sugar beet = assay: Test B pre/postemergence sugar beet; assay type: in vivo, Beta vulgaris
Summary of the method: (§1)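 Test chemicals in a non-phytotoxic solvent mixture with surfactant were sprayed preemergence onto planted seeds and postemergence onto plants 2 to 18 cm tall (1- to 4-leaf stage). After twelve to sixteen days in a greenhouse, injury was visually rated against untreated controls from 0 (no effect) to 10 (complete control).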

bamyardgrass = assay: Test B flood test barnyardgrass; assay type: in vivo, Echinochloa crus-galli
Summary of the method: (§2)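 Flood test on plants grown to the 2-leaf stage; treated plants kept in greenhouse twelve to sixteen days, then visually rated against controls on a 0 (no effect) to 10 (complete control) scale.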

rape = assay: Test B pre/postemergence rape; assay type: in vivo, Brassica napus
Summary of the method: as §1

soybean = assay: Test B pre/postemergence soybean; assay type: in vivo, Glycine max
Summary of the method: as §1

smallflower flatsedge = assay: Test B flood test smallflower flatsedge; assay type: in vivo, Cyperus difformis
Summary of the method: as §2

cocklebur = assay: Test B pre/postemergence cocklebur; assay type: in vivo, Xanthium strumarium
Summary of the method: as §1

surinam grass = assay: Test B pre/postemergence surinam grass; assay type: in vivo, Brachiaria decumbens
Summary of the method: as §1

purple nutsedge = assay: Test B pre/postemergence purple nutsedge; assay type: in vivo, Cyperus rotundus
Summary of the method: as §1

bedstraw = assay: Test B pre/postemergence bedstraw; assay type: in vivo, Galium aparine
Summary of the method: as §1

velvetleaf = assay: Test B pre/postemergence velvetleaf; assay type: in vivo, Abutilon theophrasti
Summary of the method: as §1

blackgrass = assay: Test B pre/postemergence blackgrass; assay type: in vivo, Alopecurus myosuroides
Summary of the method: as §1

crabgrass = assay: Test B pre/postemergence crabgrass; assay type: in vivo, Digitaria sanguinalis
Summary of the method: as §1

wild oat = assay: Test B pre/postemergence wild oat; assay type: in vivo, Avena fatua
Summary of the method: as §1

corn = assay: Test B pre/postemergence corn; assay type: in vivo, Zea mays
Summary of the method: as §1

duck salad = assay: Test B flood test duck salad; assay type: in vivo, Heteranthera limosa
Summary of the method: as §2

wheat = assay: Test B pre/postemergence wheat; assay type: in vivo, Triticum aestivum
Summary of the method: as §1

[1] = Postemergence, Rate 62 g/ha, scale 0 to 10, 0 is no effect, 10 is complete control
[2] = Postemergence, Rate 125 g/ha, scale of 0 to 10 where 0 is no effect and 10 is complete control
[3] = Postemergence, Rate 250 g/ha, scale of 0 to 10, 0 is no effect, 10 is complete control
[4] = Preemergence, Rate 62 g/ha, scale of 0 to 10 where 0 is no effect and 10 is complete control
[5] = Preemergence, Rate 125 g/ha, scale of 0 to 10 where 0 is no effect and 10 is complete control
[6] = Preemergence, Rate 250 g/ha, scale 0 to 10 (0 no effect, 10 complete control)
[7] = Preemergence, Rate 500 g/ha, scale of 0 to 10 where 0 is no effect and 10 is complete control
[8] = Rate 62 g/ha, flood test species, Pre-emergence, visual evaluation after twelve to sixteen days
[9] = Rate 125 g/ha, under heading Pre-emergence, flood test species, visual evaluation after twelve to sixteen days
[10] = Rate 250 g/ha, Pre-emergence (flood test species), scale 0 to 10, 0 is no effect, 10 is complete control
[11] = Rate 500 g/ha, Pre-emergence section of Table B, 0 to 10 scale (0 no effect, 10 complete control)
[12] = Postemergence, Rate 500 g/ha, scale of 0 to 10 where 0 is no effect and 10 is complete control

In the case of `CCCCCn1c(=O)on(C(=O)N(c2ccc(F)cc2F)C(C)C)c1=O` [Compound 636], the “Plant response rating, Sugarbeets” value (sugar beet; [1]) is reported as 2, the “Plant response rating, Sugarbeets” value (sugar beet; [2]) is reported as 2 and the “Sugarbeets plant response rating” value (sugar beet; [3]) is reported as 5. For the same molecule, the “Sugarbeets plant response rating” value (sugar beet; [4]) was 0, the “Sugarbeets plant response rating” value (sugar beet; [5]) was 0 and the “Plant response rating, Sugarbeets” value (sugar beet; [6]) was 6. The “Plant response rating, Sugarbeets” value (sugar beet; [7]) was 7, the “Plant response rating, Barnyardgrass (0 to 10 scale, 0 is no effect, 10 is complete control)” value (bamyardgrass; [8]) was 0 and the “Barnyardgrass plant response rating (0 to 10 scale, 0 is no effect, 10 is complete control)” value (bamyardgrass; [9]) was 0. The “Barnyardgrass plant response rating” value (bamyardgrass; [10]) was 0, the “Barnyardgrass plant response rating” value (bamyardgrass; [11]) was 2 and the “Plant response rating, Rape” value (rape; [1]) was 2. For the same molecule, the “Plant response rating, Rape” value (rape; [2]) was 6, the “Rape plant response rating” value (rape; [3]) was 7 and the “Plant response rating, Rape” value (rape; [12]) was 7. For the same molecule, the “Rape plant response rating” value (rape; [4]) was 0, the “Rape plant response rating” value (rape; [5]) was 2 and the “Plant response rating, Rape” value (rape; [6]) was 7. For the same molecule, the “Plant response rating, Rape” value (rape; [7]) was 10, the “Plant response rating, Soybean” value (soybean; [1]) was 2 and the “Plant response rating, Soybean” value (soybean; [2]) was 2. The “Soybean plant response rating” value (soybean; [3]) was 4, the “Soybean plant response rating” value (soybean; [4]) was 0 and the “Soybean plant response rating” value (soybean; [5]) was 0. For the same molecule, the “Plant response rating, Soybean” value (soybean; [6]) was 0, the “Plant response rating, Soybean” value (soybean; [7]) was 4 and the “Plant response rating, S. Flatsedge (0 to 10 scale, 0 is no effect, 10 is complete control)” value (smallflower flatsedge; [8]) was 0. For the same molecule, the “S. Flatsedge plant response rating (0 to 10 scale, 0 is no effect, 10 is complete control)” value (smallflower flatsedge; [9]) was 0, the “S. Flatsedge plant response rating” value (smallflower flatsedge; [10]) was 0 and the “S. Flatsedge plant response rating” value (smallflower flatsedge; [11]) was 0. The “Plant response rating, Cocklebur” value (cocklebur; [1]) was 0, the “Plant response rating, Cocklebur” value (cocklebur; [2]) was 3 and the “Cocklebur plant response rating” value (cocklebur; [3]) was 3. For the same molecule, the “Plant response rating, Cocklebur” value (cocklebur; [12]) was 3, the “Cocklebur plant response rating” value (cocklebur; [4]) was 0 and the “Cocklebur plant response rating” value (cocklebur; [5]) was 0. For the same molecule, the “Plant response rating, Cocklebur” value (cocklebur; [6]) was 0, the “Plant response rating, Cocklebur” value (cocklebur; [7]) was 0 and the “Plant response rating, B. signalgrass” value (surinam grass; [1]) was 0. The “Plant response rating, B. signalgrass” value (surinam grass; [2]) was 0, the “B. signalgrass plant response rating” value (surinam grass; [3]) was 0 and the “Plant response rating, B. signalgrass” value (surinam grass; [12]) was 3. For the same molecule, the “B. signalgrass plant response rating” value (surinam grass; [4]) was 3, the “B. signalgrass plant response rating” value (surinam grass; [5]) was 9 and the “Plant response rating, B. signalgrass” value (surinam grass; [6]) was 8. The “Plant response rating, B. signalgrass” value (surinam grass; [7]) was 9, the “Plant response rating, Nutsedge” value (purple nutsedge; [1]) was 0 and the “Plant response rating, Nutsedge” value (purple nutsedge; [2]) was 0. For the same molecule, the “Nutsedge plant response rating” value (purple nutsedge; [3]) was 0, the “Plant response rating, Nutsedge” value (purple nutsedge; [12]) was 0 and the “Nutsedge plant response rating” value (purple nutsedge; [4]) was 0. For the same molecule, the “Nutsedge plant response rating” value (purple nutsedge; [5]) was 0, the “Plant response rating, Nutsedge” value (purple nutsedge; [6]) was 0 and the “Plant response rating, Nutsedge” value (purple nutsedge; [7]) was 10. The “Plant response rating, Bedstraw” value (bedstraw; [1]) was 7, the “Plant response rating, Bedstraw” value (bedstraw; [2]) was 7 and the “Bedstraw plant response rating” value (bedstraw; [3]) was 9. The “Bedstraw plant response rating” value (bedstraw; [5]) was 5, the “Plant response rating, Bedstraw” value (bedstraw; [6]) was 9 and the “Plant response rating, Bedstraw” value (bedstraw; [7]) was 9. For the same molecule, the “Plant response rating, Velvetleaf” value (velvetleaf; [1]) was 3, the “Plant response rating, Velvetleaf” value (velvetleaf; [2]) was 3 and the “Velvetleaf plant response rating” value (velvetleaf; [3]) was 3. For the same molecule, the “Velvetleaf plant response rating” value (velvetleaf; [4]) was 0, the “Velvetleaf plant response rating” value (velvetleaf; [5]) was 0 and the “Plant response rating, Velvetleaf” value (velvetleaf; [6]) was 2. For the same molecule, the “Plant response rating, Velvetleaf” value (velvetleaf; [7]) was 4, the “Plant response rating, Blackgrass” value (blackgrass; [1]) was 0 and the “Plant response rating, Blackgrass” value (blackgrass; [2]) was 0. For the same molecule, the “Blackgrass plant response rating” value (blackgrass; [3]) was 3, the “Plant response rating, Blackgrass” value (blackgrass; [12]) was 5 and the “Blackgrass plant response rating” value (blackgrass; [4]) was 2. For the same molecule, the “Blackgrass plant response rating” value (blackgrass; [5]) was 4, the “Plant response rating, Blackgrass” value (blackgrass; [6]) was 4 and the “Plant response rating, Blackgrass” value (blackgrass; [7]) was 7. For the same molecule, the “Plant response rating, Crabgrass” value (crabgrass; [1]) was 3, the “Plant response rating, Crabgrass” value (crabgrass; [2]) was 9 and the “Crabgrass plant response rating” value (crabgrass; [3]) was 9. For the same molecule, the “Plant response rating, Crabgrass” value (crabgrass; [12]) was 9, the “Crabgrass plant response rating” value (crabgrass; [4]) was 8 and the “Crabgrass plant response rating” value (crabgrass; [5]) was 9. For the same molecule, the “Plant response rating, Crabgrass” value (crabgrass; [6]) was 10, the “Plant response rating, Crabgrass” value (crabgrass; [7]) was 10 and the “Plant response rating, Wild oats” value (wild oat; [1]) was 0. For the same molecule, the “Plant response rating, Wild oats” value (wild oat; [2]) was 0, the “Wild oats plant response rating” value (wild oat; [3]) was 0 and the “Wild oats plant response rating” value (wild oat; [4]) was 0. For the same molecule, the “Wild oats plant response rating” value (wild oat; [5]) was 0, the “Plant response rating, Wild oats” value (wild oat; [6]) was 0 and the “Plant response rating, Wild oats” value (wild oat; [7]) was 5. The “Plant response rating, Corn” value (corn; [1]) was 2, the “Plant response rating, Corn” value (corn; [2]) was 2 and the “Corn plant response rating” value (corn; [3]) was 2. For the same molecule, the “Plant response rating, Corn” value (corn; [12]) was 2, the “Corn plant response rating” value (corn; [5]) was 0 and the “Plant response rating, Corn” value (corn; [6]) was 0. For the same molecule, the “Plant response rating, Corn” value (corn; [7]) was 3, the “Plant response rating, Ducksalad (0 to 10 scale, 0 is no effect, 10 is complete control)” value (duck salad; [8]) was 0 and the “Ducksalad plant response rating (0 to 10 scale, 0 is no effect, 10 is complete control)” value (duck salad; [9]) was 0. For the same molecule, the “Ducksalad plant response rating” value (duck salad; [10]) was 0, the “Ducksalad plant response rating” value (duck salad; [11]) was 0 and the “Plant response rating, Wheat” value (wheat; [1]) was 0. The “Plant response rating, Wheat” value (wheat; [2]) was 0, the “Wheat plant response rating” value (wheat; [3]) was 0 and the “Wheat plant response rating” value (wheat; [4]) was 0. The “Wheat plant response rating” value (wheat; [5]) was 0, the “Plant response rating, Wheat” value (wheat; [6]) was 0 and the “Plant response rating, Wheat” value (wheat; [7]) was 2.
